Test results published in ChEMBL document CHEMBL1743201, “Casarett and Doull's Toxicology The Basic Science of Poisons, 7th edition” (2008).

What was measured:
Format in all cases: ADME
Cytochrome P450 2B6 = biological target: T1, Cytochrome P450 2B6 (Homo sapiens, UniProt P20813); assay: Clinically relevant substrates of human liver microsomal P450 enzymes, isoform CYP2B6; settings: microsomes
T1 sequence (P20813 whole entry): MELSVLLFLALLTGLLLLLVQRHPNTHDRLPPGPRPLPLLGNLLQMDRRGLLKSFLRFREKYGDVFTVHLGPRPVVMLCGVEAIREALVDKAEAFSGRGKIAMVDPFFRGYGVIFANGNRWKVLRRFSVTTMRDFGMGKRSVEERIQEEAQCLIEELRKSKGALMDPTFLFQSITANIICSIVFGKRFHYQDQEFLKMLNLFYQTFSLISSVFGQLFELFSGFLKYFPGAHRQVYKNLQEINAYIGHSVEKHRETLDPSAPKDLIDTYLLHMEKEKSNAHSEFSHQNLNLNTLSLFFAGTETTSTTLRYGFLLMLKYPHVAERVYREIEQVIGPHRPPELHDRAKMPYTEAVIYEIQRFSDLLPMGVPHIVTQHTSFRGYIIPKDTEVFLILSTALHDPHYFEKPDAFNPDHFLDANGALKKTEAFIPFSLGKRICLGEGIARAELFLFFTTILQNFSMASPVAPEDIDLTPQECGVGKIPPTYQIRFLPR

Cytochrome P450 2C9 = Cytochrome P450 2C9 (Homo sapiens, UniProt P11712); assay: Clinically relevant inhibitors of human liver microsomal P450 enzymes, isoform CYP2C9; settings: microsomes
Sequence of Cytochrome P450 2C9 (P11712 whole entry, canonical isoform): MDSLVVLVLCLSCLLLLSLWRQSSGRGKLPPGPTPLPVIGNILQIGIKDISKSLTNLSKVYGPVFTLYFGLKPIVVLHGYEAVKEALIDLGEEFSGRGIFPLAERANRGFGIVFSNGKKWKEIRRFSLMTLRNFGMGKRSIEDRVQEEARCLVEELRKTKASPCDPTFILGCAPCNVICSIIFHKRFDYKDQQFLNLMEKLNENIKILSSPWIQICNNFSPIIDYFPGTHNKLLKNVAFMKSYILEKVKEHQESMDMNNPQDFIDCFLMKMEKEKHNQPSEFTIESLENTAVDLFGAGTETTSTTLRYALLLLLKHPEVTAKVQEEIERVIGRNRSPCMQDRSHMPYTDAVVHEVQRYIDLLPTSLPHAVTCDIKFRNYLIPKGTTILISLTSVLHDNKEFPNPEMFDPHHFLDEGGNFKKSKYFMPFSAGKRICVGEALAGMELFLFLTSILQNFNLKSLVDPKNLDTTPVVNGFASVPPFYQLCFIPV

Sulfotransferase 1C4 = Sulfotransferase 1C4 (Homo sapiens, UniProt O75897); assay: Major substrate of human cytosolic sulfotransferase SULT1C4
Sequence of Sulfotransferase 1C4 (O75897 whole entry): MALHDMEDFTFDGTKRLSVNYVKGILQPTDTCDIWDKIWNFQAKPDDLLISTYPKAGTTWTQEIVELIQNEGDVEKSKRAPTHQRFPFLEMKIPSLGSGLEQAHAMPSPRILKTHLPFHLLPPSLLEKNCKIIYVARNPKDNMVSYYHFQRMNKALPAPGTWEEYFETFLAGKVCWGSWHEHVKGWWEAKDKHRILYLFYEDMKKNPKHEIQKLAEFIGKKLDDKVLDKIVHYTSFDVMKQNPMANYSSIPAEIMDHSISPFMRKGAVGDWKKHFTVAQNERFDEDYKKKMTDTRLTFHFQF

[1] = biological target: T2, UDP-glucuronosyltransferase 1A1 (Homo sapiens, UniProt P22309); assay: Substrate of human UDP-glucuronosyltransferase UGT1A1
T2 sequence (P22309 whole entry): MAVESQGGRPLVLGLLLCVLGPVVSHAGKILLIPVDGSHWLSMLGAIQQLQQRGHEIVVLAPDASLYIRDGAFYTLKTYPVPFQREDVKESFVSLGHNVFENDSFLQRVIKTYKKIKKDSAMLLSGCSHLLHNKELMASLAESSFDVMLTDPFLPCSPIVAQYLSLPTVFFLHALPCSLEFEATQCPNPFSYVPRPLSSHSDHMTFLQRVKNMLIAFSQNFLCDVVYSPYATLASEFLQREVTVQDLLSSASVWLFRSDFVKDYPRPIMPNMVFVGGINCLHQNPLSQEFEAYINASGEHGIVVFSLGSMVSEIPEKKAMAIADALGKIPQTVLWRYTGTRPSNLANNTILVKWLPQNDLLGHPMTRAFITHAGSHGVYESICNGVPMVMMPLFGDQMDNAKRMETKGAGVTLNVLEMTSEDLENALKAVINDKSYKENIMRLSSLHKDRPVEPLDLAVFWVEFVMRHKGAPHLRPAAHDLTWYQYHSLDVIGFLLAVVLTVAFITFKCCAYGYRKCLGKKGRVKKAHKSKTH

Sulfotransferase 1A1 = Sulfotransferase 1A1 (Homo sapiens, UniProt P50225); assay: Major substrate of human cytosolic sulfotransferase SULT1A1
Sequence of Sulfotransferase 1A1 (P50225 whole entry): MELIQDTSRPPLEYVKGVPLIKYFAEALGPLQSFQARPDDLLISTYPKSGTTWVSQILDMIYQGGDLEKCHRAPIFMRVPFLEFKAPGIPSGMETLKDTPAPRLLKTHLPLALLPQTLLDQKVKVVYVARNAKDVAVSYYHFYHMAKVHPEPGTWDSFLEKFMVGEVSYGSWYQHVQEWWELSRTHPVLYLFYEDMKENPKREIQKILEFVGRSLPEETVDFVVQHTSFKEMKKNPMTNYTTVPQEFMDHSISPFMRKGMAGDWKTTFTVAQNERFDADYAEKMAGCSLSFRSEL

[2] = biological target: T3, UDP-glucuronosyltransferase 1A9 (Homo sapiens, UniProt O60656); assay: Substrate of human UDP-glucuronosyltransferase UGT1A9
T3 sequence (O60656 whole entry): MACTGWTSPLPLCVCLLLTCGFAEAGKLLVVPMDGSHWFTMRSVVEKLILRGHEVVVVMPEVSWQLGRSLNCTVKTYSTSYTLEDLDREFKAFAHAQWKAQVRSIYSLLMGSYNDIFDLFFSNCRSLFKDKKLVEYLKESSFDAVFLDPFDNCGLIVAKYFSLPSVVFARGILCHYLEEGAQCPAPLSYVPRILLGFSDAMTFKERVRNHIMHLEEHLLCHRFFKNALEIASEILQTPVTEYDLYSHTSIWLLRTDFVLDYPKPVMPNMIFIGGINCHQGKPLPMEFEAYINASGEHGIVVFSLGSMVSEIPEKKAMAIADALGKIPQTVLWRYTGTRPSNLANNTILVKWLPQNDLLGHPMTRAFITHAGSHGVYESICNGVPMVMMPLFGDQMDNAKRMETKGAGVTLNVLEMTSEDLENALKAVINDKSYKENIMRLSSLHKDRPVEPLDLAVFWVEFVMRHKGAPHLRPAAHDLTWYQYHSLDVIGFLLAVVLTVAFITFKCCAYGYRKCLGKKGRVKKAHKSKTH

[3] = biological target: T4, UDP-glucuronosyltransferase 1A6 (Homo sapiens, UniProt P19224); assay: Substrate of human UDP-glucuronosyltransferase UGT1A6
T4 sequence (P19224 whole entry): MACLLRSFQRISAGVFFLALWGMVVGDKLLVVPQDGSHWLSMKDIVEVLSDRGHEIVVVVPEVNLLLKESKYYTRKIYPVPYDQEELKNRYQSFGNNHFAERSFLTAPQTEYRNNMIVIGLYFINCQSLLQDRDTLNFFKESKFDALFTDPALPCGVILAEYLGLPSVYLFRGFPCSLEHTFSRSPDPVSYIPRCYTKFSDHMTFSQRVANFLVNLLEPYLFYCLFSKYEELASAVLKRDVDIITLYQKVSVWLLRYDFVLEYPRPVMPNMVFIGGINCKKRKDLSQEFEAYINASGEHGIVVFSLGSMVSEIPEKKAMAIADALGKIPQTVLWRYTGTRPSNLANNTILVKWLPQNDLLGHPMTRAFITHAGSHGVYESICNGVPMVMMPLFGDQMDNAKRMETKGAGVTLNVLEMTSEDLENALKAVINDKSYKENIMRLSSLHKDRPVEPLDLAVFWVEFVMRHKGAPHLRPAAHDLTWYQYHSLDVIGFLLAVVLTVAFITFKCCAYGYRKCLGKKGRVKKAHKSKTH

[4] = biological target: Glutathione S-transferase P (Homo sapiens, UniProt P09211); assay: Substrates for human cytosolic glutathione transferase GSTP1
Sequence of Glutathione S-transferase P (P09211 whole entry): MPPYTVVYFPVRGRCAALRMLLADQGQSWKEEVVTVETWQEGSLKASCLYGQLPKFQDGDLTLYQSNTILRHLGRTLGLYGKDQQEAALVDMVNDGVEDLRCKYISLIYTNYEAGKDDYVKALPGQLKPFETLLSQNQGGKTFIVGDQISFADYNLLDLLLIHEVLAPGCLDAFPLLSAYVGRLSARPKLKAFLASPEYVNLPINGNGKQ

[5] = biological target: T5, Glutathione S-transferase A1 (Homo sapiens, UniProt P08263); assay: Substrates for human cytosolic glutathione transferase GSTA1
T5 sequence (P08263 whole entry): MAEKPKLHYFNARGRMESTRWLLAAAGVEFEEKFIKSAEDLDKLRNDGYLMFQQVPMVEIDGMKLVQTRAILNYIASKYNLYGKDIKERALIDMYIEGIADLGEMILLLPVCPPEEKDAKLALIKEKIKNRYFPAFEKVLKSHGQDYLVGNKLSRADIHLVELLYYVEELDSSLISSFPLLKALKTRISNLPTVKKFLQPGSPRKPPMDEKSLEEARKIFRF

Sulfotransferase 1E1 = biological target: T6, Sulfotransferase 1E1 (Homo sapiens, UniProt P49888); assay: Major substrate of human cytosolic sulfotransferase SULT1E1
T6 sequence (P49888 whole entry): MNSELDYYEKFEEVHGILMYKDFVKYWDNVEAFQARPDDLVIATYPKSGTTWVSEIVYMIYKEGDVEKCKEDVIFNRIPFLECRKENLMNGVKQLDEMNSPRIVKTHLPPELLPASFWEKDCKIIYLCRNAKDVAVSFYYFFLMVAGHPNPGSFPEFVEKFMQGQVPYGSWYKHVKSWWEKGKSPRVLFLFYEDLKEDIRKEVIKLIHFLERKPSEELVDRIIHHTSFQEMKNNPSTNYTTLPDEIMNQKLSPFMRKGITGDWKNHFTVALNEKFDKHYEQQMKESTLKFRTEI

[6] = biological target: T7, UDP-glucuronosyltransferase 1A3 (Homo sapiens, UniProt P35503); assay: Substrate of human UDP-glucuronosyltransferase UGT1A3
T7 sequence (P35503 whole entry): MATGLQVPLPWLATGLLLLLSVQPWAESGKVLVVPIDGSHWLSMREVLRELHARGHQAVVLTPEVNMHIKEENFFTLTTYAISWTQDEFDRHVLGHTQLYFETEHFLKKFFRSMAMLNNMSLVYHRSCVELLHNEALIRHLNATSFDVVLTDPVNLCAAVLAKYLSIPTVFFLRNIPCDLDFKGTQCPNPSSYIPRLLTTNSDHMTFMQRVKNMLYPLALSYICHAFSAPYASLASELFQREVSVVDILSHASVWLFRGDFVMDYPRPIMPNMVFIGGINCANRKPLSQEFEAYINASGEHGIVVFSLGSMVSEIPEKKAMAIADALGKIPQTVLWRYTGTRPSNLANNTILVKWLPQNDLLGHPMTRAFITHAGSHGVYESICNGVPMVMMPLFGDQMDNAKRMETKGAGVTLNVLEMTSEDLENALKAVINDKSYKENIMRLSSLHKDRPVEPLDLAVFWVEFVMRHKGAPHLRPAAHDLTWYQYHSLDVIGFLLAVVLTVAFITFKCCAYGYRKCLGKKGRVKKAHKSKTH

[7] = biological target: T8, UDP-glucuronosyltransferase 2B7 (Homo sapiens, UniProt P16662); assay: Substrate of human UDP-glucuronosyltransferase UGT2B7
T8 sequence (P16662 whole entry): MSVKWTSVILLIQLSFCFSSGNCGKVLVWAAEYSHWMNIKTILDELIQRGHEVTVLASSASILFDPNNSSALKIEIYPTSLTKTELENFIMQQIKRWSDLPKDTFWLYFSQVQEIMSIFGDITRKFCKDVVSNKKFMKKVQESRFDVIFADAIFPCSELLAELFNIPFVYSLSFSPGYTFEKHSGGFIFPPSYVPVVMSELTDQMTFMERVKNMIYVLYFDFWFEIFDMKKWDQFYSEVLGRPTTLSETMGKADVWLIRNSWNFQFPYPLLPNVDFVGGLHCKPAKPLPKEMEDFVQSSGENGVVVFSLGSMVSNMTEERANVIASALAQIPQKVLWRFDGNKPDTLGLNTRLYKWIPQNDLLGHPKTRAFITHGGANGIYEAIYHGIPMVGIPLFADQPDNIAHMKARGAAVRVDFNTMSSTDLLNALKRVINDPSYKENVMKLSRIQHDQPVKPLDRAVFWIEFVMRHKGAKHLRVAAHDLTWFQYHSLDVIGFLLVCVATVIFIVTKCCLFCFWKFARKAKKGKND

`CC[C@@]1(c2ccccc2)NC(=O)N(C)C1=O` was tested, and the Activity (Cytochrome P450 2B6) was “Substrate”.
In the case of `O=C(O)COc1ccc(C(=O)c2cccs2)c(Cl)c1Cl`, the Activity (Cytochrome P450 2C9) is reported as “Inhibitor”.
With `CCCCCCCCCc1ccc(O)cc1` [4-NONYLPHENOL] the Activity (Sulfotransferase 1C4) was “Substrate”.
In the case of `CC(=O)Nc1ccc(O)cc1` [ACETAMINOPHEN], the Activity [1] is reported as “Substrate”, the Activity (Sulfotransferase 1A1) is reported as “Substrate” and the Activity [2] is reported as “Substrate”. For the same compound, the Activity [3] was “Substrate”.
For `C=CC=O` [ACROLEIN], the Activity [4] was “Substrate”.
`C=CC1=C(C)/C(=C/c2[nH]c(Cc3[nH]c(/C=C4\NC(=O)C(C)=C4C=C)c(C)c3CCC(=O)O)c(CCC(=O)O)c2C)NC1=O` [BILIRUBIN] was tested, and the Activity [1] was “Substrate”.
With `CC(C)(c1ccc(O)cc1)c1ccc(O)cc1` [BISPHENOL A] the Activity (Sulfotransferase 1C4) was “Substrate”.
For `CCCCCOC(=O)Nc1nc(=O)n([C@@H]2O[C@H](C)[C@@H](O)[C@H]2O)cc1F` [CAPECITABINE], the Activity (Cytochrome P450 2C9) was “Inhibitor”.
With `O=C(O)CCCc1ccc(N(CCCl)CCCl)cc1` [CHLORAMBUCIL] the Activity [4] was “Substrate” and the Activity [5] was “Substrate”.
For `O=P1(N(CCCl)CCCl)NCCCO1` (stereo not drawn) [CYCLOPHOSPHAMIDE ANHYDROUS], the Activity (Cytochrome P450 2B6) was “Substrate”.
For `CC/C(=C(/CC)c1ccc(O)cc1)c1ccc(O)cc1` [DIETHYLSTILBESTROL], the Activity (Sulfotransferase 1E1) was “Substrate” and the Activity (Sulfotransferase 1C4) was “Substrate”.
In the case of `O=C1Nc2ccc(Cl)cc2[C@@](C#CC2CC2)(C(F)(F)F)O1` [EFAVIRENZ], the Activity (Cytochrome P450 2B6) is reported as “Substrate”.
In the case of `C[C@]12CC[C@@H]3c4ccc(O)cc4CC[C@H]3[C@@H]1CC[C@@H]2O[C@@H]1O[C@H](C(=O)O)[C@@H](O)[C@H](O)[C@H]1O` [ESTRADIOL 17B GLUCURONIDE], the Activity [1] is reported as “Substrate”.
`C#C[C@]1(O)CC[C@H]2[C@@H]3CCc4cc(O)ccc4[C@H]3CC[C@@]21C` [ETHINYL ESTRADIOL] was tested, and the Activity [1] was “Substrate” and the Activity (Sulfotransferase 1E1) was “Substrate”.
In the case of `O=C1[C@H](CC[C@H](O)c2ccc(F)cc2)[C@@H](c2ccc(O)cc2)N1c1ccc(F)cc1` [EZETIMIBE], the Activity [6] is reported as “Substrate”.
With `CC(C(=O)O)c1cccc(Oc2ccccc2)c1` (stereo not drawn) [FENOPROFEN] the Activity [2] was “Substrate” and the Activity [6] was “Substrate”.
For `OC(Cn1cncn1)(Cn1cncn1)c1ccc(F)cc1F` [FLUCONAZOLE], the Activity (Cytochrome P450 2C9) was “Inhibitor”.
With `Cc1cc(=O)oc2cc(O)ccc12` [HYMECROMONE] the Activity [3] was “Substrate”.
With `CNC1(c2ccccc2Cl)CCCCC1=O` (stereo not drawn) [KETAMINE] the Activity (Cytochrome P450 2B6) was “Substrate”.
With `CC(C(=O)O)c1cccc(C(=O)c2ccccc2)c1` (stereo not drawn) [KETOPROFEN] the Activity [7] was “Substrate”, the Activity [2] was “Substrate” and the Activity [6] was “Substrate”.
In the case of `CN1CCC(=C2c3ccccc3CC(=O)c3sccc32)CC1` [KETOTIFEN], the Activity [6] is reported as “Substrate”.
In the case of `CCOC(=O)C1(c2ccccc2)CCN(C)CC1` [MEPERIDINE], the Activity (Cytochrome P450 2B6) is reported as “Substrate”.
For `COc1ccc2cc([C@H](C)C(=O)O)ccc2c1` [NAPROXEN], the Activity [2] was “Substrate” and the Activity [6] was “Substrate”.
For `Cc1ccnc2c1NC(=O)c1cccnc1N2C1CC1` [NEVIRAPINE], the Activity (Cytochrome P450 2B6) was “Substrate”.
`C[C@]12COC(=O)C[C@@H]1CC[C@@H]1[C@@H]2CC[C@@]2(C)[C@H]1CC[C@]2(C)O` [OXANDROLONE] was tested, and the Activity (Cytochrome P450 2C9) was “Inhibitor”.
For `NCCc1c[nH]c2ccc(O)cc12` [SEROTONIN], the Activity [3] was “Substrate”.
For `Nc1ccc(S(=O)(=O)Nc2ccnn2-c2ccccc2)cc1` [SULFAPHENAZOLE], the Activity (Cytochrome P450 2C9) was “Inhibitor”.
For `S=P(N1CC1)(N1CC1)N1CC1` [THIOTEPA], the Activity [4] was “Substrate”.
